Measurements taken from PubChem BioAssay (NCI).
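These data come from cells grown in 96-well plates and exposed to compound for 48 hours at five concentrations. TGI: concentration producing complete growth inhibition.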

Columns and labels:
Assay in all cases: NCI tumour cell line growth inhibition, 48 h
[1] = test system: 786-0 renal
[2] = test system: A498 renal
[3] = test system: A549 NSCLC
[4] = test system: ACHN renal
[5] = test system: CAKI-1 renal
[6] = test system: CCRF-CEM leukemia
[7] = test system: DLD-1 colon
[8] = test system: DMS 114 small cell lung
[9] = test system: DMS 273 small cell lung
[10] = test system: EKVX NSCLC
[11] = test system: HCC-2998 colon
[12] = test system: HCT-116 colon
[13] = test system: HCT-15 colon
[14] = test system: HL-60(TB) leukemia
[15] = test system: HOP-18 NSCLC
[16] = test system: HOP-62 NSCLC
[17] = test system: HT29 colon
[18] = test system: IGROV1 ovarian
[19] = test system: K-562 leukemia
[20] = test system: KM12 colon
[21] = test system: KM20L2 colon
[22] = test system: LOX IMVI melanoma
[23] = test system: LXFL 529 NSCLC
[24] = test system: M14 melanoma
[25] = test system: MALME-3M melanoma
[26] = test system: MOLT-4 leukemia
[27] = test system: NCI-H23 lung
[28] = test system: NCI-H460 lung
[29] = test system: NCI-H522 lung
[30] = test system: OVCAR-3 ovarian
[31] = test system: OVCAR-4 ovarian
[32] = test system: OVCAR-5 ovarian
[33] = test system: OVCAR-8 ovarian
[34] = test system: RPMI-8226 leukemia
[35] = test system: RXF-631 renal
[36] = test system: SF-268 CNS
[37] = test system: SF-295 CNS
[38] = test system: SF-539 CNS
[39] = test system: SK-MEL-2 melanoma
[40] = test system: SK-MEL-28 melanoma
[41] = test system: SK-MEL-5 melanoma
[42] = test system: SK-OV-3 ovarian
[43] = test system: SNB-19 CNS
[44] = test system: SNB-75 CNS
[45] = test system: SNB-78 CNS
[46] = test system: SR leukemia
[47] = test system: SW-620 colon
[48] = test system: TK-10 renal
[49] = test system: U251 CNS
[50] = test system: UACC-257 melanoma
[51] = test system: UACC-62 melanoma
[52] = test system: UO-31 renal
[53] = test system: COLO 205 colon
[54] = test system: HOP-92 NSCLC
[55] = test system: M19-MEL melanoma
[56] = test system: NCI-H226 lung
[57] = test system: RXF 393 renal
[58] = test system: SN12C renal
[59] = test system: XF 498 CNS

Measured: TGI

Brc1cc2c(cc1C1SCCS1)OCO2
not listed: [53] | [54] | [55] | [56] | [57] | [58] | [59]
> 100 µM: all other assays above

CC(=O)c1cccc(NC(=O)C(=O)Nn2c(N)nnc2N)c1
not listed: [30] | [35]
> 100 µM: all other assays above
